“And” between values parts separate entries of the source, which are not always exact repeats. Equal entries are not always repeated.

One assay concerns the target T1, D(4) dopamine receptor (Homo sapiens, UniProt P21917).
T1 sequence (P21917 whole entry): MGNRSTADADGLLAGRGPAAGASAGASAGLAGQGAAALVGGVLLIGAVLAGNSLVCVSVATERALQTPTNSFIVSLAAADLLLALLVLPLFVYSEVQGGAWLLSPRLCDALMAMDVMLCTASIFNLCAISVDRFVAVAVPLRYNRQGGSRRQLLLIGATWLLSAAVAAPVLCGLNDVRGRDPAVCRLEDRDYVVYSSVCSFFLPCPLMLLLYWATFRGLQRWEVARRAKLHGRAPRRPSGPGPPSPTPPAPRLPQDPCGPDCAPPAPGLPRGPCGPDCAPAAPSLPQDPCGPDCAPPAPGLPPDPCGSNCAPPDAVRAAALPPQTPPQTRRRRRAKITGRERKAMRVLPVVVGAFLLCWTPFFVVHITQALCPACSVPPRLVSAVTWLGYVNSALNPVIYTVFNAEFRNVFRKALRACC
The experiment in a line: Displacement of [3H]spiperone from human D4 receptor expressed in CHO cells. In kind it is cell-based. (In general: Loss of bound radioactivity is the signal in a displacement assay; it reports binding, not function.)

Assay [1] deals with T2, D(2) dopamine receptor (Homo sapiens, UniProt P14416). The assay can be described thus: biochemical.
T2 sequence (P14416 whole entry): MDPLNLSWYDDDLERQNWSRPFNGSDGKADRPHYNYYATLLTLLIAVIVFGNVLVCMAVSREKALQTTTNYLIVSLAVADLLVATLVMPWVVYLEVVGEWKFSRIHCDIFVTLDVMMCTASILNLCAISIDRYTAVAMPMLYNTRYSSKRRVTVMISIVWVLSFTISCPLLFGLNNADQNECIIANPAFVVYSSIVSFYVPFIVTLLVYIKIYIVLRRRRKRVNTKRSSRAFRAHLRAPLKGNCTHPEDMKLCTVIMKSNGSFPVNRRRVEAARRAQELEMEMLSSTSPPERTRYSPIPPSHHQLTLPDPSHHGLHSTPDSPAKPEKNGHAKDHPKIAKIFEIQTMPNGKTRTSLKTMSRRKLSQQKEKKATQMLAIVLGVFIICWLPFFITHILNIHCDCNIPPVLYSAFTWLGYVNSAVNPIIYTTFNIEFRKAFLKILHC
Description: Displacement of [3H]spiperone from human D2 long receptor expressed in CHO cells
Another assay deals with D(3) dopamine receptor (Homo sapiens, UniProt P35462). The experiment in a line: biochemical.
D(3) dopamine receptor, sequence (P35462 whole entry): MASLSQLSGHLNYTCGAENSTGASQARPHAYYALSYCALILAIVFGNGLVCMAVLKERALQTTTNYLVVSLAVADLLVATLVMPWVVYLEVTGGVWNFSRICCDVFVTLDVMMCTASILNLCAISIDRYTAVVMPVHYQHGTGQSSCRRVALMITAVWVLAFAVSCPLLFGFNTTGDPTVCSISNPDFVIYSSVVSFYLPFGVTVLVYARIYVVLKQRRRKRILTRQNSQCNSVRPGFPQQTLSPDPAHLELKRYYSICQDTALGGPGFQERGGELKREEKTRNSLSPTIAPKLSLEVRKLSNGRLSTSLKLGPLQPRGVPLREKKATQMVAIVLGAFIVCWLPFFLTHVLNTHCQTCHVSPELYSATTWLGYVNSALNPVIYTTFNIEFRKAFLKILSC
In assay [2] the target is T2, D(2) dopamine receptor. The experiment in a line: biochemical. This is another data set of the same source.
Description: Displacement of [3H]spiperone from human D2 short receptor expressed in CHO cells

Description for D(3) dopamine receptor: Displacement of [3H]spiperone from human D3 receptor expressed in CHO cells

Broadly, the Ki is the equilibrium dissociation constant of an inhibitor or competing ligand from its target. The low end stands for a stronger hold on the target, the high end for a looser hold on the target. Regarding `COc1ccccc1N1CCN(CCCCNC(=O)c2cc3c4ccc(c3o2)CCc2ccc(cc2)CC4)CC1`, the results for the Ki on D(4) dopamine receptor, at D(2) dopamine receptor [1] and at D(3) dopamine receptor were 140 nM, 170 nM and 16 nM, respectively.

`COc1ccccc1N1CCN(CCCCNC(=O)c2cc3ccc2CCc2ccc(cc2)CC3)CC1`: the Ki on D(4) dopamine receptor is 5.4 nM and 9.5 nM; at D(2) dopamine receptor [1], 15 nM and 11 nM; on D(2) dopamine receptor [2] it was 13 nM and 5.6 nM.

For the molecule `O=C(NCCCCN1CCN(c2cccc(F)c2F)CC1)c1cc2ccc1CCc1ccc(cc1)CC2`, the Ki came out at 18 nM at D(4) dopamine receptor, 35 nM on D(2) dopamine receptor [2] and 1.9 nM at D(3) dopamine receptor.

On to `COc1c(Cl)cccc1N1CCN(CCCCNC(=O)c2cc3ccc2CCc2ccc(cc2)CC3)CC1`, for which the Ki on D(4) dopamine receptor is 33 nM; at D(2) dopamine receptor [1], 42 nM; on D(2) dopamine receptor [2], 28 nM; at D(3) dopamine receptor, 0.46 nM.

On to `O=C(NCCCCN1CCN(c2cccc(Cl)c2Cl)CC1)c1cc2ccc1CCc1ccc(cc1)CC2`, for which the Ki at D(4) dopamine receptor was 120 nM; at D(2) dopamine receptor [1] it was 220 nM; at D(2) dopamine receptor [2], 140 nM; on D(3) dopamine receptor it was 3.6 nM.

For the origin of these results see ChEMBL document CHEMBL1148643, “Fancy bioisosteres: novel paracyclophane derivatives as super-affinity dopamine D3 receptor antagonists” (J Med Chem, 2006).
